Assays:
[1] = test system: Tyrosine-protein kinase receptor UFO (Homo sapiens), P30530 [Q764R]; test: Inhibition of recombinant human AXL Q764R mutant (473 to end residues) assessed as residual activity at 10 uM using KKSRGDYMTMQIG as substrate measured after 40 mins in presence of [gamma33P]ATP by scintillation counting method
[2] = test system: Hepatocyte growth factor receptor (Homo sapiens), P08581 [M1250T]; test: Inhibition of recombinant human MET A1209G/V1290L/M1268T mutant (974 to end residues) assessed as residual activity at 10 uM using KKKGQEEEYVFIE as substrate measured after 40 mins in presence of [gamma33P]ATP by scintillation counting method
[3] = Toxicity in nude BALB/c mouse assessed as change in globulin level at 40 to 80 mg/kg, po once daily for 4 weeks measured post-last dose; assay type: organism-based; conditions: in vivo, 672 h
[4] = Renal toxicity in nude BALB/c mouse at 80 mg/kg, po administered once daily for 4 weeks measured post-last dose by hematoxylin and eosin staining-based assay; assay type: organism-based; conditions: in vivo, 672 h
[5] = target: Protein kinase C theta type (Homo sapiens) (UniProt Q04759); test: Inhibition of recombinant full-length human PKCtheta assessed as residual activity at 10 uM using histone H1as substrate measured after 40 mins in presence of [gamma33P]ATP by scintillation counting method
[6] = target: Tyrosine-protein kinase JAK3 (Homo sapiens) (UniProt P52333); test: Inhibition of recombinant human JAK3 (781 to end residues) assessed as residual activity at 10 uM using GGEEEEYFELVKKKK as substrate measured after 40 mins in presence of [gamma33P]ATP by scintillation counting method
[7] = target: CDK9/cyclin T1 (Homo sapiens) (UniProt O60563+P50750); test: Inhibition of recombinant full length human CDK9/cyclinT1 assessed as residual activity at 10 uM using KTFCGTPEYLAPEVRREPRILSEEEQEMFRDFDYIADWC as substrate measured after 40 mins in presence of [gamma33P]ATP by scintillation counting method; assay type: protein-complex assay
[8] = target: Protein kinase C zeta type (Homo sapiens) (UniProt Q05513); test: Inhibition of recombinant human PKCzeta (2 to end residues) assessed as residual activity at 10 uM using ERMRPRKRQGSVRRRV as substrate measured after 40 mins in presence of [gamma33P]ATP by scintillation counting method
Sequence of Protein kinase C zeta type (Homo sapiens) (Q05513 whole entry): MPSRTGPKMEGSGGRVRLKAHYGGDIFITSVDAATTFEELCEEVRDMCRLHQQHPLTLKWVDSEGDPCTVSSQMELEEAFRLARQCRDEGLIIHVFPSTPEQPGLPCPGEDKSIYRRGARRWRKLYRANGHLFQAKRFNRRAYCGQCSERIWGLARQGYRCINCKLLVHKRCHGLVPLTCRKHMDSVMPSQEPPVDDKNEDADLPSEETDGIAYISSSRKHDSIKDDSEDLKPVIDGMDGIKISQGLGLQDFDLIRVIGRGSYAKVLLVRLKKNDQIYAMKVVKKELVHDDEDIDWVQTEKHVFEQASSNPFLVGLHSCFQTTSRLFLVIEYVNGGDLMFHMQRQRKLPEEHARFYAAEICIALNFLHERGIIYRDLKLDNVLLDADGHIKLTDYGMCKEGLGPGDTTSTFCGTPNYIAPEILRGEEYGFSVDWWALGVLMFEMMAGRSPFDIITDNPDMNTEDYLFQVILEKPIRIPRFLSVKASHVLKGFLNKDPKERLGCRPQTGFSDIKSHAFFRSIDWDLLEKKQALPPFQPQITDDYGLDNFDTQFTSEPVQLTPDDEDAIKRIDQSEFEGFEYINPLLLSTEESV

[9] = test system: PLC-PRF-5; test: Antiproliferative activity against human PLC/PRF/5 cells assessed as reduction in cell viability after 72 hrs by MTT assay; assay type: functional, cell-based; conditions: PLC-PRF-5, 72 h
[10] = test system: Hepatocyte growth factor receptor (Homo sapiens), P08581 [Y1230H]; test: Inhibition of recombinant human MET A1209G/V1290L/Y1248H mutant (974 to end residues) assessed as residual activity at 10 uM using KKKGQEEEYVFIE as substrate measured after 40 mins in presence of [gamma33P]ATP by scintillation counting method
[11] = Hepatotoxicity in nude BALB/c mouse at 80 mg/kg, po administered once daily for 4 weeks measured post-last dose by hematoxylin and eosin staining-based assay; assay type: toxicity, organism-based; conditions: in vivo, 672 h
[12] = test system: Macrophage colony-stimulating factor 1 receptor (Homo sapiens), P07333 [Y969C]; test: Inhibition of recombinant human FMS Y969C mutant (538 to end residues) assessed as residual activity at 10 uM using EEEEYEEEEEEYYIIEEEEEEYEEEEEEYYEEEEEEKKKK as substrate measured after 40 mins in presence of [gamma33P]ATP by scintillation counting method
[13] = target: Ribosomal protein S6 kinase alpha-6 (Homo sapiens) (UniProt Q9UK32); test: Inhibition of recombinant full-length human Rsk4 assessed as residual activity at 10 uM using LRRASLG as substrate measured after 40 mins in presence of [gamma33P]ATP by scintillation counting method
[14] = target: Serine/threonine-protein kinase MAK (Homo sapiens) (UniProt P20794); test: Inhibition of recombinant full-length human MAK assessed as residual activity at 10 uM using RRRFRPASPLRGPPK as substrate measured after 120 mins in presence of [gamma33P]ATP by scintillation counting method
[15] = target: Ephrin type-A receptor 8 (Homo sapiens) (UniProt P29322); test: Inhibition of recombinant human EphA8 (615 to 911 residues) assessed as residual activity at 10 uM using KTFCGTPEYLAPEVRREPRILSEEEQEMFRDFDYIADWC as substrate measured after 40 mins in presence of [gamma33P]ATP by scintillation counting method
Sequence of Ephrin type-A receptor 8 (Homo sapiens) (P29322 whole entry, the tested form may be a part): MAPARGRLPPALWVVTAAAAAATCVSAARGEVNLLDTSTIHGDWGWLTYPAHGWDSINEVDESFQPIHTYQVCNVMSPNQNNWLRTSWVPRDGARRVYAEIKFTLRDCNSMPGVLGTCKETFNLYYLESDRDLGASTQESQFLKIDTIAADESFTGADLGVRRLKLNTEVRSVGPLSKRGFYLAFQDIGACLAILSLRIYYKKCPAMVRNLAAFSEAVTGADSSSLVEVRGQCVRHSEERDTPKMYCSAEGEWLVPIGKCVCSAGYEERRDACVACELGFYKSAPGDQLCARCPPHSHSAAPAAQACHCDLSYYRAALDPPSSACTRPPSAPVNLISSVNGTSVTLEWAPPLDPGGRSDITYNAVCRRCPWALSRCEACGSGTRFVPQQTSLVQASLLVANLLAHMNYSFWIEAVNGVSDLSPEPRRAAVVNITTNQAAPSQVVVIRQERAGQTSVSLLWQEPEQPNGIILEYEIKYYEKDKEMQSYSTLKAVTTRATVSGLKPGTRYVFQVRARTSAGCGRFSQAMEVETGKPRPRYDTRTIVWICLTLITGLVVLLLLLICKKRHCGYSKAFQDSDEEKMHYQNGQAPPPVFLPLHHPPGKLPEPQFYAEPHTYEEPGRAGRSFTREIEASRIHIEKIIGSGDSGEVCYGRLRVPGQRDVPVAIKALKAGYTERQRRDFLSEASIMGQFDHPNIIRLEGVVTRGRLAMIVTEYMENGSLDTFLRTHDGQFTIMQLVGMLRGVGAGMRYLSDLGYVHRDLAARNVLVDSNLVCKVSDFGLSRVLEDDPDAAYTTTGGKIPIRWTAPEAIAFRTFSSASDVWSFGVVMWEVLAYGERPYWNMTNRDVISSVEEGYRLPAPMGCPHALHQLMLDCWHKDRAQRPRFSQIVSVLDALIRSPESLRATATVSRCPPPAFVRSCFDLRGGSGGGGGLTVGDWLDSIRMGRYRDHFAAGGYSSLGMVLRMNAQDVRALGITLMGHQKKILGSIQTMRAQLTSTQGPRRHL

[16] = species: Homo sapiens; test: Inhibition of recombinant human Flt4 V1128L/H1146R mutant (800 to end residues) assessed as residual activity at 10 uM using GGEEEEYFELVKKKK as substrate measured after 40 mins in presence of [gamma33P]ATP by scintillation counting method
[17] = target: CDK3/Cyclin E (Homo sapiens) (UniProt P24864+Q00526); test: Inhibition of recombinant full-length human CDK3/cyclinE assessed as residual activity at 10 uM using histone H1 as substrate measured after 40 mins in presence of [gamma33P]ATP by scintillation counting method; assay type: protein-complex assay
[18] = species: Homo sapiens; test: Inhibition of recombinant full-length human PI3K p120gamma R459Q mutant assessed as residual activity at 10 uM using phosphatidylinositol-4, 5-bisphosphate as substrate measured after 40 mins by fluorescence assay
[19] = Cardiotoxicity in nude BALB/c mouse at 80 mg/kg, po administered once daily for 4 weeks measured post-last dose by hematoxylin and eosin staining-based assay; assay type: toxicity, organism-based; conditions: in vivo, 672 h
[20] = target: Serine/threonine-protein kinase SIK2 (Homo sapiens) (UniProt Q9H0K1); test: Inhibition of human SIK2 (1 to 276 residues) using KKKVSRSGLYRSPSMPENLNRPR as substrate measured after 40 mins in presence of [gamma33P]ATP by scintillation counting method; set-up: scale not given: the % may be the effect or the level left
Sequence of Serine/threonine-protein kinase SIK2 (Homo sapiens) (Q9H0K1 whole entry, looked up, the tested form may be a part): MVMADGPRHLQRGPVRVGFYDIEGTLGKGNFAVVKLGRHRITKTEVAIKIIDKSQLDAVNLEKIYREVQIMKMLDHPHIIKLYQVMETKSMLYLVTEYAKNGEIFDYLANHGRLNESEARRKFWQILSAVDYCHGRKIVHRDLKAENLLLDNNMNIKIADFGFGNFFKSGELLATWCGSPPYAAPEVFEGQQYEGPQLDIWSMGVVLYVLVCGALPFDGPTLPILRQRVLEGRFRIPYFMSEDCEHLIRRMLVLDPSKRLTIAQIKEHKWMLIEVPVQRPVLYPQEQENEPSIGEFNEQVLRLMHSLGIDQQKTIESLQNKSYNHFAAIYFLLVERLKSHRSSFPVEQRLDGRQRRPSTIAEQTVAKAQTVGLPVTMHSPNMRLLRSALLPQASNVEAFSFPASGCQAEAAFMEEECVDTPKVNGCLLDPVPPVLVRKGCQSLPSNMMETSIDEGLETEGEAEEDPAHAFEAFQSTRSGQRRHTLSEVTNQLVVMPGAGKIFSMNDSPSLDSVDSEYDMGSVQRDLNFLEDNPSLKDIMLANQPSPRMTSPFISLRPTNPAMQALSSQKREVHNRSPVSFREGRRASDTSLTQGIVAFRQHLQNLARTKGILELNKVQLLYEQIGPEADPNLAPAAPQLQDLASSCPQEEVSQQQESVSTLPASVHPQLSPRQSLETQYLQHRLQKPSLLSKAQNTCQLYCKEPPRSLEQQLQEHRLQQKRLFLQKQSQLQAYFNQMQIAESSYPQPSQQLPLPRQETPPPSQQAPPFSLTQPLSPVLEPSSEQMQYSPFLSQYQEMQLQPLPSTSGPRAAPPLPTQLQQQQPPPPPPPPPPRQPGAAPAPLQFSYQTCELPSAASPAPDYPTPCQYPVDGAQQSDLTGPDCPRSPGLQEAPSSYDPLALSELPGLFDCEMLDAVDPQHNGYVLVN

[21] = target: Interleukin-1 receptor-associated kinase 1 (Homo sapiens) (UniProt P51617); test: Inhibition of recombinant human IRAK1 (194 to end residues) assessed as residual activity at 10 uM using myelin basic protein as substrate measured after 40 mins in presence of [gamma33P]ATP by scintillation counting method
[22] = target: CDK2/Cyclin A2 (Homo sapiens) (UniProt P24941+P20248); test: Inhibition of recombinant full-length human CDK2/cyclinA assessed as residual activity at 10 uM using histone H1 as substrate measured after 40 mins in presence of [gamma33P]ATP by scintillation counting method; assay type: protein-complex assay
[23] = test system: HCT-116; test: Induction of apoptosis in human HCT116 cells assessed as late apoptotic cells at 50 nM measured after 48 hrs by Annexin V-FITC/propidium iodide staining-based flow cytometry (reference value: 3.87%); assay type: functional
[24] = target: Insulin-like growth factor 1 receptor (Homo sapiens) (UniProt P08069); test: Inhibition of recombinant human activated IGF1R (959 to end residues) assessed as residual activity at 10 uM using KKKSPGEYVNIEFG as substrate measured after 40 mins in presence of [gamma33P]ATP by scintillation counting method
Sequence of Insulin-like growth factor 1 receptor (Homo sapiens) (P08069 31-736 limits assumed): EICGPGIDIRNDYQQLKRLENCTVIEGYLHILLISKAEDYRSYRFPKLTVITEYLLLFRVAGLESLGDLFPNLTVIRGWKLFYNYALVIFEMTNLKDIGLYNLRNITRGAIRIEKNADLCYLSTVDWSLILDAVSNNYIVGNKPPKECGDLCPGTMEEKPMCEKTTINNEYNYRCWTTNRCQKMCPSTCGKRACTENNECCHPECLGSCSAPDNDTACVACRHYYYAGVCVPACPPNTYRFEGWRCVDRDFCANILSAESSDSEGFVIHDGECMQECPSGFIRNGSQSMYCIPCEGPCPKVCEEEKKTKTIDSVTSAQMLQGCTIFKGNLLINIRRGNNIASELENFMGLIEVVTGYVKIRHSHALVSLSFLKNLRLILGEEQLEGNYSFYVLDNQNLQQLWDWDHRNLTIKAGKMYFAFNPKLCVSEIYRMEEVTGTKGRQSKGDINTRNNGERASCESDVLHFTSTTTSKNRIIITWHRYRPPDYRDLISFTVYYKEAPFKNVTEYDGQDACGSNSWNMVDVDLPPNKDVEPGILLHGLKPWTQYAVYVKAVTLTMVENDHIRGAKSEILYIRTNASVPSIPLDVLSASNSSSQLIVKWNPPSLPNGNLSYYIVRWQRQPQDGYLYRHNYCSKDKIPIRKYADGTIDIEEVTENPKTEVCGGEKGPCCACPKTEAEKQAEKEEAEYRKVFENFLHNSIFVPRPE
Sequence of Insulin-like growth factor 1 receptor (Homo sapiens) (P08069 741-1367 limits assumed): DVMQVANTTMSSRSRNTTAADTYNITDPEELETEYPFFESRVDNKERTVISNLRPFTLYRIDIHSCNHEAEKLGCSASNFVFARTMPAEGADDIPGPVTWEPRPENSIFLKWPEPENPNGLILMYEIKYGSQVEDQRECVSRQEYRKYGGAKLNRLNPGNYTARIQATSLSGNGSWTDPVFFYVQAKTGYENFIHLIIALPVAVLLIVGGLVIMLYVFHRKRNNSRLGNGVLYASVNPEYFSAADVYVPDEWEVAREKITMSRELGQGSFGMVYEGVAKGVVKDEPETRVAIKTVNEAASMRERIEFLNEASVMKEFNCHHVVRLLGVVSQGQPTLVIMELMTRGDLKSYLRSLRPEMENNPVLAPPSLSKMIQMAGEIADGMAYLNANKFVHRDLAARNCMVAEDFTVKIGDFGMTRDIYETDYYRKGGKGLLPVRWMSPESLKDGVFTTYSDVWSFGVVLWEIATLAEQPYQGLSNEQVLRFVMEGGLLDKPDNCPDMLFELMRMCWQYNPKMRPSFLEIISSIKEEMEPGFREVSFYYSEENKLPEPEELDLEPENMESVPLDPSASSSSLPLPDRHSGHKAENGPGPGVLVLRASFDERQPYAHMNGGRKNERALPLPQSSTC

[25] = test system: A549; test: Antiproliferative activity against human A549 cells assessed as reduction in cell viability after 72 hrs by MTT assay; assay type: functional, cell-based; conditions: A549, 72 h

Sequence of Tyrosine-protein kinase receptor UFO (Homo sapiens), P30530 [Q764R] (P30530 whole entry Q764R): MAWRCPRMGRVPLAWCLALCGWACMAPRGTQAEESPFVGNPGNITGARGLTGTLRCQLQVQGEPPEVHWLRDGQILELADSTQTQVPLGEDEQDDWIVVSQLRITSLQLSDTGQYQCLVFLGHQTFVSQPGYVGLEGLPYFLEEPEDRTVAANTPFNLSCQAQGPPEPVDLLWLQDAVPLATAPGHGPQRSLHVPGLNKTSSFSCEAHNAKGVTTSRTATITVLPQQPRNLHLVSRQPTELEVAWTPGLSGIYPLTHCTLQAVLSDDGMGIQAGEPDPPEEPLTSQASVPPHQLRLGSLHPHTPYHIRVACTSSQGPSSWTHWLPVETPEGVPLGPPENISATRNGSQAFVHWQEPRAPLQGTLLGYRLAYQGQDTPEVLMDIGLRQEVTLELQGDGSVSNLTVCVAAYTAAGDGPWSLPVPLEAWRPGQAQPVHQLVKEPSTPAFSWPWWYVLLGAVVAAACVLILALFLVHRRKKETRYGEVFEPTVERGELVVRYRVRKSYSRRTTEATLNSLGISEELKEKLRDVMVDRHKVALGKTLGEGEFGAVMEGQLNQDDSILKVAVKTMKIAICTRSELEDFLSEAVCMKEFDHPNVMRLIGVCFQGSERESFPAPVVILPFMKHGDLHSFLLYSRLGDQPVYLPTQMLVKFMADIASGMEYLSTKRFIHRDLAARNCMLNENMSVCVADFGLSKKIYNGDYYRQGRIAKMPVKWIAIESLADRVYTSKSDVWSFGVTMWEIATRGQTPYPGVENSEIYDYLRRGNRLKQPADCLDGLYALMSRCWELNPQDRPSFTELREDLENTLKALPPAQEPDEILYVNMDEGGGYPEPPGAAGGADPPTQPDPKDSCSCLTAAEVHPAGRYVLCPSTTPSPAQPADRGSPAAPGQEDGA

## Cc1cc(C)c(CNc2nc(Cl)nc3c2ncn3C2CCCC2)c(=O)[nH]1
[1]
  Activity: 107%
[2]
  Activity: 105%
[3]
  Activity: Non-Toxic
[4]
  Activity: Non-Toxic
[5]
  Activity: 103%
[6]
  Activity: 90%
[7]
  Activity: 106%
[8]
  Activity: 99.5%
[9]
  IC50: 286 nM
[10]
  Activity: 99%
[11]
  Activity: Non-Toxic
[12]
  Activity: 94.5%
[13]
  Activity: 98.5%
[14]
  Activity: 106%
[15]
  Activity: 97%
[16]
  Activity: 104%
[17]
  Activity: 113%
[18]
  Activity: 109%
[19]
  Activity: Non-Toxic
[20]
  Activity: 97%
[21]
  Activity: 102%
[22]
  Activity: 110%
[23]
  Activity: 46.2%
[24]
  Activity: 90.5%
[25]
  IC50: 98 nM

— ChEMBL document CHEMBL4311992, “Discovery of 3-(((9H-purin-6-yl)amino)methyl)-4,6-dimethylpyridin-2(1H)-one derivatives as novel tubulin polymerization inhibitors for treatment of cancer” (Eur J Med Chem, 2019)
